# Strand notation (5' to 3'): a small letter for the sugar, then the base; units joined by * are phosphorothioate-linked, units joined directly phosphodiester-linked; [ ] holds rarer units or linkages, { } end groups; capitals alone tell only the bases. e = 2'-O-(2-methoxyethyl) (MOE); [5mC] = 5-methylcytosine; d = 2'-deoxy (DNA)
# How the values were obtained:
# blood coagulation = test: PT and aPTT assay in cynomolgus monkeys (Example 45); assay type: in vivo; conditions: platelet poor plasma
# Procedure: (§1) Groups, each consisting of two male and three female monkeys, were injected subcutaneously with ISIS 416838, ISIS 416850, ISIS 416858, ISIS 416864, or ISIS 417002 in escalating doses. Antisense oligonucleotide was administered to the monkeys at 5 mg/kg three times per a week for week 1; 5 mg/kg twice per week for weeks 2 and 3; 10 mg/kg three times per week for week 4; 10 mg/kg twice per week for weeks 5 and 6; 25 mg/kg three times per week for week 7; and 25 mg/kg twice per week for weeks 8, 9, 10, 11, and 12. One control group, consisting of two male and three female monkeys, was injected subcutaneously with PBS according to the same dosing regimen. An additional experimental group, consisting of two male and three female monkeys, was injected subcutaneously with ISIS 416850 in a chronic, lower dose regimen. Antisense oligonucleotide was administered to the monkeys at 5 mg/kg three times per week for week 1; 5 mg/kg twice per week for week 2 and 3; 10 mg/kg three times per week for week 4; and 10 mg/kg twice per week for weeks 5 to 12. Body weights were measured weekly. Blood samples were collected 14 days and 5 days before the start of treatment and subsequently once per week for Factor 11 protein activity analysis in plasma, fibrinogen measurement, PT and aPTT measurements, bleeding times, and measurement of various hematologic factors. On day 85, the monkeys were euthanized by exsanguination while under deep anesthesia, and organs harvested for further analysis.
# Blood samples were collected in tubes containing sodium citrate. PT and aPTT were determined in duplicate with an ACL 9000 coagulation instrument (Instrumentation Laboratory, Italy). The results were interpolated on a standard curve of serial dilutions citrated control monkey plasma tested to give a reported result in percent normal.
# Prothrombin Time (PT) and Activated Partial Thromboplastin Time (aPTT) were measured using platelet poor plasma (PPP) from monkeys treated with ISIS oligonucleotides. PT and aPTT values are provided in Tables 116 and 117 and are reported as International Normalized Ratio (INR) values. INR values for PT and aPTT were determined by dividing the PT or aPTT value for each experimental group by the PT or aPTT for the PBS treated group. This ratio was then raised to the power of the International Sensitivity Index (ISI) of the tissue factor used. The ISIS oligonucleotide, ISIS 416850, given with the chronic dose regimen is distinguished from the other oligonucleotides with an asterisk (*).
# Factor 11 activity = test: Factor 11 protein activity, F11 assay based on clotting time (Example 45); assay type: in vivo, cynomolgus monkeys
# Procedure: as §1
# Blood samples were collected at various time points and Factor 11 proenzyme was measured using a F11 assay based on clotting time. Clotting times were determined in duplicate with a ST4 semi-automated coagulation instrument (Diagnostica Stago, NJ). Thirty μl of citrated sample plasma diluted 1/20 in HEPES-NaCl buffer with BSA was incubated with 30 μl aPTT reagent (Automated aPTT, Organon Technika, NC) and 30 μl of citrated plasma deficient of Factor 11 (George King Bio-Medical Inc.) at 37° C. for 5 min, followed by the addition of 30 μl of 25 mM CaCl2) to initiate clotting. Results were interpolated on a standard curve of serially diluted citrated control plasma.
# Results are presented in Table 118 as percent inhibition of Factor 11 activity, relative to PBS control. The ISIS oligonucleotide, ISIS 416850, given with the chronic dose regimen is distinguished from the other oligonucleotides with an asterisk (*).
# [1] = Tolerability in CD1 mice: hematology assays (Example 41); conditions: 50 mg/kg s.c. twice per week for 6 weeks, blood
# [2] = parameters: species or system CD1 mice; conditions: mouse, in vivo, sc, 50 mg/kg
# Procedure: The concentration of the full-length oligonucleotide was measured. The method used is a modification of previously published methods (Leeds et al., 1996; Geary et al., 1999) which consist of a phenol-chloroform (liquid-liquid) extraction followed by a solid phase extraction. An internal standard (ISIS 355868, a 27-mer 2′-O-methoxyethyl modified phosphorothioate oligonucleotide, […], designated herein as SEQ ID NO: 270) was added prior to extraction. […] The results are presented in Table 85 expressed as μg/g liver tissue.
# [3] = Tolerability in CD1 mice: body weight and organ weight (Example 43); assay type: in vivo; conditions: 50 mg/kg s.c. twice per week for 6 weeks, at the end of the study
# Text: The body weights of the mice taken at the end of the study are presented in Table 104 and are expressed in grams.
# [4] = day 8, chronic dose regimen (*)
# [5] = day 15, chronic dose regimen (*)
# [6] = day 15, escalating dose regimen
# [7] = day 22, chronic dose regimen (*)
# [8] = day 22, escalating dose regimen
# [9] = day 29, chronic dose regimen (*)
# [10] = day 29, escalating dose regimen
# [11] = day 36, chronic dose regimen (*)
# [12] = day 36, escalating dose regimen
# [13] = day 43, chronic dose regimen (*)
# [14] = day 43, escalating dose regimen
# [15] = day 50, chronic dose regimen (*)
# [16] = day 50, escalating dose regimen
# [17] = day 57, escalating dose regimen
# [18] = day 64, escalating dose regimen
# [19] = day 71, escalating dose regimen
# [20] = day 78, escalating dose regimen
# [21] = day 85, escalating dose regimen
# [22] = day −5, chronic dose regimen (*)
# [23] = day −5, escalating dose regimen
# [24] = day −14, chronic dose regimen (*)
# [25] = day −14, escalating dose regimen
substance,measurement,setting,value
"ISIS 416850: MOE gapmer, nucleobases 1275 to 1318 of SEQ ID NO: 1 (Table 8) (antisense TGCACAGTTTCTGGCAGGCC; MOE gapmer, wing and gap sizes not given here)",PT ratio (INR),blood coagulation; [4],1.03
same,aPTT ratio (INR),blood coagulation; [4],1.12
same,PT ratio (INR),"blood coagulation; day 8, escalating dose regimen",1.00
same,aPTT ratio (INR),"blood coagulation; day 8, escalating dose regimen",1.05
same,PT ratio (INR),blood coagulation; [5],1.06
same,aPTT ratio (INR),blood coagulation; [5],1.07
same,PT ratio (INR),blood coagulation; [6],1.02
same,aPTT ratio (INR),blood coagulation; [6],1.05
same,PT ratio (INR),blood coagulation; [7],1.06
same,aPTT ratio (INR),blood coagulation; [7],1.21
same,PT ratio (INR),blood coagulation; [8],1.02
same,aPTT ratio (INR),blood coagulation; [8],1.13
same,PT ratio (INR),blood coagulation; [9],1.00
same,aPTT ratio (INR),blood coagulation; [9],1.26
same,PT ratio (INR),blood coagulation; [10],1.03
same,aPTT ratio (INR),blood coagulation; [10],1.13
same,PT ratio (INR),blood coagulation; [11],1.06
same,aPTT ratio (INR),blood coagulation; [11],1.34
same,PT ratio (INR),blood coagulation; [12],1.02
same,aPTT ratio (INR),blood coagulation; [12],1.26
same,PT ratio (INR),blood coagulation; [13],1.02
same,aPTT ratio (INR),blood coagulation; [13],1.22
same,PT ratio (INR),blood coagulation; [14],1.01
same,aPTT ratio (INR),blood coagulation; [14],1.17
same,PT ratio (INR),blood coagulation; [15],0.98
same,aPTT ratio (INR),blood coagulation; [15],1.35
same,PT ratio (INR),blood coagulation; [16],1.02
same,aPTT ratio (INR),blood coagulation; [16],1.68
same,PT ratio (INR),blood coagulation; [17],1.04
same,aPTT ratio (INR),blood coagulation; [17],1.59
same,PT ratio (INR),blood coagulation; [18],1.03
same,aPTT ratio (INR),blood coagulation; [18],1.64
same,PT ratio (INR),blood coagulation; [19],1.03
same,aPTT ratio (INR),blood coagulation; [19],1.76
same,PT ratio (INR),blood coagulation; [20],1.05
same,aPTT ratio (INR),blood coagulation; [20],1.88
same,PT ratio (INR),blood coagulation; [21],1.04
same,aPTT ratio (INR),blood coagulation; [21],1.99
same,PT ratio (INR),blood coagulation; [22],1.00
same,aPTT ratio (INR),blood coagulation; [22],1.00
same,PT ratio (INR),blood coagulation; [23],1.00
same,aPTT ratio (INR),blood coagulation; [23],1.00
same,PT ratio (INR),blood coagulation; [24],1.00
same,aPTT ratio (INR),blood coagulation; [24],1.00
same,PT ratio (INR),blood coagulation; [25],1.00
same,aPTT ratio (INR),blood coagulation; [25],1.00
same,"percent inhibition of Factor 11 activity, relative to PBS control",Factor 11 activity; [4],6%
same,"percent inhibition of Factor 11 activity, relative to PBS control","Factor 11 activity; day 8, escalating dose regimen",8%
same,"percent inhibition of Factor 11 activity, relative to PBS control",Factor 11 activity; [5],13%
same,"percent inhibition of Factor 11 activity, relative to PBS control",Factor 11 activity; [6],4%
same,"percent inhibition of Factor 11 activity, relative to PBS control",Factor 11 activity; [7],12%
same,"percent inhibition of Factor 11 activity, relative to PBS control",Factor 11 activity; [8],11%
same,"percent inhibition of Factor 11 activity, relative to PBS control",Factor 11 activity; [9],20%
same,"percent inhibition of Factor 11 activity, relative to PBS control",Factor 11 activity; [10],15%
same,"percent inhibition of Factor 11 activity, relative to PBS control",Factor 11 activity; [11],24%
same,"percent inhibition of Factor 11 activity, relative to PBS control",Factor 11 activity; [12],17%
same,"percent inhibition of Factor 11 activity, relative to PBS control",Factor 11 activity; [13],24%
same,"percent inhibition of Factor 11 activity, relative to PBS control",Factor 11 activity; [14],23%
same,"percent inhibition of Factor 11 activity, relative to PBS control",Factor 11 activity; [15],30%
same,"percent inhibition of Factor 11 activity, relative to PBS control",Factor 11 activity; [16],42%
same,"percent inhibition of Factor 11 activity, relative to PBS control",Factor 11 activity; [17],49%
same,"percent inhibition of Factor 11 activity, relative to PBS control",Factor 11 activity; [18],55%
same,"percent inhibition of Factor 11 activity, relative to PBS control",Factor 11 activity; [19],57%
same,"percent inhibition of Factor 11 activity, relative to PBS control",Factor 11 activity; [20],63%
same,"percent inhibition of Factor 11 activity, relative to PBS control",Factor 11 activity; [21],64%
same,"percent inhibition of Factor 11 activity, relative to PBS control",Factor 11 activity; [22],1%
same,"percent inhibition of Factor 11 activity, relative to PBS control",Factor 11 activity; [23],0%
same,"percent inhibition of Factor 11 activity, relative to PBS control",Factor 11 activity; [24],0%
same,"percent inhibition of Factor 11 activity, relative to PBS control",Factor 11 activity; [25],0%
same,HCT,[1],50%
same,Lymphocyte,[1],4710
same,Neutrophil,[1],1314
same,Platelets,[1],614
same,RBC,[1],9.8
same,WBC,[1],6
same,hemoglobin,[1],14.8 g/dL
"413482 (antisense GGACGGCATTGGTGCACAGT; 5-10-5 MOE gapmer, further chemistry not given here) [compound 413482]",Half-Life in the liver,[2],19.5 days
"ISIS 449709: 3-8-3, 4-8-4, 2-10-2, 3-10-3 or 4-10-4 MOE microwalk gapmer (Table 46) (antisense eG*e[5mC]*eA*e[5mC]*dA*dG*dT*dT*dT*d[5mC]*dT*dG*dG*d[5mC]*eA*eG*eG*e[5mC])",body weight,[3],40 g
"412224 (antisense GCATTGGTGCACAGTTTCTG; 5-10-5 MOE gapmer, further chemistry not given here) [compound 412224]",Half-Life in the liver,[2],16.6 days
"412223 (antisense ACAGTTTCTGGCAGGCCTCG; 5-10-5 MOE gapmer, further chemistry not given here) [compound 412223]",Half-Life in the liver,[2],21.9 days
"ISIS 449708: 3-8-3, 4-8-4, 2-10-2, 3-10-3 or 4-10-4 MOE microwalk gapmer (Table 46) (antisense eA*e[5mC]*eA*dG*dT*dT*dT*d[5mC]*dT*dG*dG*e[5mC]*eA*eG)",body weight,[3],40 g
"416856 (antisense GGCATTGGTGCACAGTTTCT; 5-10-5 gapmer, further chemistry not given here) [compound 416856]",Half-Life in the liver,[2],19.2 days
"ISIS 449710: 3-8-3, 4-8-4, 2-10-2, 3-10-3 or 4-10-4 MOE microwalk gapmer (Table 46) (antisense e[5mC]*eA*e[5mC]*dA*dG*dT*dT*dT*d[5mC]*dT*dG*dG*d[5mC]*eA*eG*eG)",body weight,[3],42 g
"412225 (antisense GCAGCGGACGGCATTGGTGC; 5-10-5 MOE gapmer, further chemistry not given here) [compound 412225]",Half-Life in the liver,[2],20.7 days
"ISIS 449711: 3-8-3, 4-8-4, 2-10-2, 3-10-3 or 4-10-4 MOE microwalk gapmer (Table 46) (antisense eA*e[5mC]*dA*dG*dT*dT*dT*d[5mC]*dT*dG*dG*d[5mC]*eA*eG)",body weight,[3],42 g
"ISIS 449707: 3-8-3, 4-8-4, 2-10-2, 3-10-3 or 4-10-4 MOE microwalk gapmer (Table 46) (antisense e[5mC]*eA*e[5mC]*eA*dG*dT*dT*dT*d[5mC]*dT*dG*dG*e[5mC]*eA*eG*eG)",body weight,[3],42 g

# — patent US20230263822A1, “MODULATION OF FACTOR 11 EXPRESSION” (Ionis Pharmaceuticals, Inc., priority 2008, published 2023)
